Our source for the IC50 values is patent publication US5559127A, “Fibrinogen receptor antagonists” (Merck & Co., Inc., priority 1995, dated 1996).

This assay relates to human platelets. The assay can be described thus: ADP-stimulated platelet aggregation assay (inhibition of aggregation of gel-filtered human platelets). It counts as cell-based. The following applies: fibrinogen 100 μg/ml, Ca2+ 1 mM, 10 uM ADP, 37° C., read-out: IC50 (dose inhibiting aggregation by 50% relative to a control lacking the compound). The method, then: The ADP-stimulated platelet aggregation assay was used to determine IC50 inhibition associated with compounds of the invention.
Human platelets were isolated from fresh blood, collected into acid citrate/dextrose by differential centrifugation followed by gel filtration on Sepharose 2B in divalent ion-free Tyrode's buffer (pH 7.4) containing 2% bovine serum albumin. Platelet aggregation was measured at 37° C. in a a Chronolog aggregometer. The reaction mixture contained gel-filtered human platelets (2×10^8 […]), fibrinogen (100 μg/ml), Ca^2+ (1 mM), and the compound to be tested. Aggregation was initiated by adding 10 uM ADP 1 minute after the other components had been added. The reaction was allowed to proceed for at least 2 minutes. The extent of inhibition of aggregation was expressed as the percentage of the rate of aggregation observed in the absence of inhibitor. The IC50 is the dose of a particular compound inhibiting aggregation by 50% relative to a control lacking the compound.

By IC50 is commonly meant the concentration needed to halve the response being measured. `CCCCS(=O)(=O)N[C@@H](CNC(=O)c1ccc2cc(CCC3CCNCC3)sc2c1)C(=O)O` [2-[2-(Piperidin-4-yl)ethyl]benzothiophene-6-N-[3-(2(S)-butylsulfonylaminopropionic acid)]carboxamide]: the IC50 is 36 nM.

`O=C(NC[C@H](NS(=O)(=O)c1ccccc1)C(=O)O)c1cc2cc(OCCC3CCNCC3)ccc2[nH]1` [5-[2-(4-Piperidinylethyl)oxy]-2-indolecarbonyl-2(S)-phenylsulfonyl0amino-β-alanine]: the IC50 was determined as 12 nM.

As for `O=C(N[C@@H](CNC(=O)c1ccc2cc(CCC3CCNCC3)sc2c1)C(=O)O)OCc1ccccc1` [2-[2-(Piperidin-4-yl)ethyl]benzothiophene-6-N-[3-(2(S)-N-carbobenzyloxyaminopropionic acid)]carboxamide], the 50% inhibitory concentration (IC50) was 67 nM.

With `CCCCS(=O)(=O)N[C@@H](Cc1ccc2oc(CCCC3CCNCC3)cc2c1)C(=O)O` [2(S)-(Butylsulfonylamino)-3-{5-[2'-3-(piperidin-4-ylpropyl)benzofuranyl]}propionic acid], the IC50 was found to be 200 nM.

Regarding `CCCCS(=O)(=O)N[C@@H](Cc1ccc2oc(C(=O)NCC3CCNCC3)cc2c1)C(=O)O` [2(S)-(Butylsulfonylamino)-3-{5-[2'-(4-piperidinylmethyl)aminocarbonyl]benzofuranyl}propionic acid], the IC50 was found to be 6600 nM.

In the case of `CCCCS(=O)(=O)N[C@@H](CNC(=O)c1ccc2[nH]c(CCC3CCNCC3)nc2c1)C(=O)O` [2-[2-(4-Piperidinyl)ethyl]benzimidazole-5-carbonyl-[2(S)-butylsulfonylamino]-β-alanine], the IC50 amounted to 22 nM.
